PubChem BioAssay AID248 (DTP/NCI, 2004)
Where “and” joins values, the source holds several entries; their conditions need not be identical. Equal entries are not always repeated. Toxic doses and inconclusive results are not listed. Cut-off read from the data, not from the text of the source: active = T/C of 150% or more; inactive = T/C below 125%.

Tested on: L1210 leukemia ip in BDF1 mice, survival T/C
Assay: NCI In Vivo Anticancer Drug Screen. Data for tumor model L1210 Leukemia (intraperitoneal) in B6D2F1 (BDF1) mice
Settings: endpoint: mean survival time, higher = longer survival
Summary of the method: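 Antitumor effect is assessed in tumor-bearing animals. Survival in the compound arm is compared with a vehicle-dosed control arm and expressed as their quotient.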

[1] = dose: 100.0 mg/kg/injection, schedule: Q01DX009 (ip), vehicle: saline with Tween-80
[2] = dose: 200.0 mg/kg/injection, schedule: Q01DX009 (ip), vehicle: saline with Tween-80
[3] = dose: 100.0 mg/kg/injection, schedule: Q04DX002 (ip), vehicle: Klucel (hydroxypropylcellulose) (HPC)
[4] = dose: 200.0 mg/kg/injection, schedule: Q04DX002 (ip), vehicle: Klucel (hydroxypropylcellulose) (HPC)
[5] = dose: 400.0 mg/kg/injection, schedule: Q04DX002 (ip), vehicle: Klucel (hydroxypropylcellulose) (HPC)
[6] = dose: 100.0 mg/kg/injection, schedule: Q01DX009 (ip), vehicle: Klucel (hydroxypropylcellulose) (HPC)
[7] = dose: 200.0 mg/kg/injection, schedule: Q01DX009 (ip), vehicle: Klucel (hydroxypropylcellulose) (HPC)
[8] = dose: 400.0 mg/kg/injection, schedule: Q01DX009 (ip), vehicle: Klucel (hydroxypropylcellulose) (HPC)
[9] = dose: 100.0 mg/kg/injection, schedule: Q04DX003 (ip), vehicle: Klucel (hydroxypropylcellulose) (HPC)
[10] = dose: 200.0 mg/kg/injection, schedule: Q04DX003 (ip), vehicle: Klucel (hydroxypropylcellulose) (HPC)
[11] = dose: 400.0 mg/kg/injection, schedule: Q04DX003 (ip), vehicle: Klucel (hydroxypropylcellulose) (HPC)
[12] = dose: 3.0 mg/kg/injection, schedule: Q01DX009 (ip), vehicle: Klucel (hydroxypropylcellulose) (HPC)
[13] = dose: 6.0 mg/kg/injection, schedule: Q01DX009 (ip), vehicle: Klucel (hydroxypropylcellulose) (HPC)
[14] = dose: 100.0 mg/kg/injection, schedule: Q01DX001 (ip), vehicle: Klucel (hydroxypropylcellulose) (HPC)
[15] = dose: 200.0 mg/kg/injection, schedule: Q01DX001 (ip), vehicle: Klucel (hydroxypropylcellulose) (HPC)
[16] = dose: 100.0 mg/kg/injection, schedule: Q04DX003 (ip), vehicle: saline with Tween-80
[17] = dose: 200.0 mg/kg/injection, schedule: Q04DX003 (ip), vehicle: saline with Tween-80
[18] = dose: 400.0 mg/kg/injection, schedule: Q04DX003 (ip), vehicle: saline with Tween-80

Measured: T/C

c1ccc([P+](c2ccccc2)(c2ccccc2)c2ccc([P+](c3ccccc3)(c3ccccc3)c3ccccc3)cc2)cc1
inactive: dose: 3.13 mg/kg/injection, schedule: Q04DX003 (ip), vehicle: saline 106 % of control | dose: 6.25 mg/kg/injection, schedule: Q04DX003 (ip), vehicle: saline 109 % of control | dose: 12.5 mg/kg/injection, schedule: Q04DX003 (ip), vehicle: saline 93 % of control and 102 % of control

Cc1ccc(NCc2ccccc2O)c(C)c1
inactive: dose: 100.0 mg/kg/injection, schedule: Q04DX003 (ip), vehicle: gum acacia 94 % of control | dose: 200.0 mg/kg/injection, schedule: Q04DX003 (ip), vehicle: gum acacia 101 % of control | dose: 400.0 mg/kg/injection, schedule: Q04DX003 (ip), vehicle: gum acacia 99 % of control

O=C(C[n+]1cccc(C(=O)NCc2ccccc2)c1)NCc1ccccc1
inactive: dose: 25.0 mg/kg/injection, schedule: Q01DX009 (ip), vehicle: saline sonified 100 % of control | dose: 50.0 mg/kg/injection, schedule: Q01DX009 (ip), vehicle: saline sonified 97 % of control | dose: 110.0 mg/kg/injection, schedule: Q01DX009 (ip), vehicle: saline sonified 95 % of control

COc1ccc(C)cc1NC(=O)Oc1ccc2c(C)cc(=O)oc2c1
inactive: [1] 96 % of control | [2] 96 % of control

CCCCCCCOC(=O)COc1ccc(Cl)cc1Cl
inactive: [3] 90 % of control | [4] 87 % of control | [5] 97 % of control

COc1ccc([N+](=O)[O-])cc1NC(=O)Nc1ccc(SC)cc1
inactive: dose: 50.0 mg/kg/injection, schedule: Q01DX009 (ip), vehicle: Klucel (hydroxypropylcellulose) (HPC) 90 % of control | [6] 89 % of control | [7] 90 % of control and 92 % of control | [8] 98 % of control

Nc1nc(-c2cc(Br)ccc2N=NN2CCCCC2)nc2ccc(Br)cc12
inactive: [3] 86 % of control | [4] 89 % of control | [5] 99 % of control

C[N+]12C(=O)CC3OCC=C4C[N+]5(C)CCC6(c7ccccc71)C2C3C4CC65O (stereo not drawn)
inactive: dose: 9.5 mg/kg/injection, schedule: Q01DX001 (ip), vehicle: other 92 % of control | dose: 19.0 mg/kg/injection, schedule: Q01DX001 (ip), vehicle: other 101 % of control

CCCCCC#CC(=O)OCC
inactive: [1] 100 % of control | [2] 89 % of control

[O-]c1nn(-c2ccccc2)c2cccc[n+]12
inactive: dose: 75.0 mg/kg/injection, schedule: Q01DX001 (ip), vehicle: saline 111 % of control

NCC(=O)NCCCCCCCCCCNC(=O)CN
inactive: dose: 10.0 mg/kg/injection, schedule: Q01DX Z (ip), vehicle: saline 98 % of control | dose: 30.0 mg/kg/injection, schedule: Q01DX Z (ip), vehicle: saline 95 % of control | dose: 100.0 mg/kg/injection, schedule: Q01DX Z (ip), vehicle: saline 98 % of control

S=C(NCc1ccccc1)[S][Sb]([S]C(=S)NCc1ccccc1)[c]1ccccc1
inactive: dose: 5.0 mg/kg/injection, schedule: Q01DX001 (ip), vehicle: saline 88 % of control | dose: 10.0 mg/kg/injection, schedule: Q01DX001 (ip), vehicle: saline 109 % of control

Nc1ccc(/C=C/c2ccncc2)cc1
inactive: [6] 92 % of control | [9] 101 % of control | [7] 92 % of control | [10] 104 % of control | [8] 102 % of control | [11] 96 % of control

C=CC[S][Pb]([c]1ccccc1)([c]1ccccc1)[c]1ccccc1
inactive: [12] 106 % of control | [13] 90 % of control | dose: 12.5 mg/kg/injection, schedule: Q04DX002 (ip), vehicle: Klucel (hydroxypropylcellulose) (HPC) 103 % of control | dose: 25.0 mg/kg/injection, schedule: Q04DX002 (ip), vehicle: Klucel (hydroxypropylcellulose) (HPC) 91 % of control

Nc1cccc(NC(=O)Nc2ccccc2)c1
inactive: dose: 50.0 mg/kg/injection, schedule: Q04DX002 (ip), vehicle: Klucel (hydroxypropylcellulose) (HPC) 105 % of control | [3] 91 % of control

NNC(=O)CNc1ccccc1
inactive: dose: 50.0 mg/kg/injection, schedule: Q01DX001 (ip), vehicle: Klucel (hydroxypropylcellulose) (HPC) 100 % of control | [14] 110 % of control | [15] 117 % of control

c1ccc(N2CCN(c3ccccn3)CC2)nc1
inactive: dose: 50.0 mg/kg/injection, schedule: Q01DX009 (ip), vehicle: saline with Tween-80 92 % of control | [1] 99 % of control | [2] 89 % of control

Cc1ccc(C#N)s1
inactive: dose: 3.12 mg/kg/injection, schedule: Q01DX009 (ip), vehicle: other 98 % of control | dose: 6.25 mg/kg/injection, schedule: Q01DX009 (ip), vehicle: other 104 % of control | dose: 12.5 mg/kg/injection, schedule: Q01DX009 (ip), vehicle: other 98 % of control | dose: 16.0 mg/kg/injection, schedule: Q04DX003 (ip), vehicle: saline 102 % of control | dose: 25.0 mg/kg/injection, schedule: Q01DX009 (ip), vehicle: other 106 % of control | dose: 25.0 mg/kg/injection, schedule: Q04DX003 (ip), vehicle: saline 117 % of control

CC1(C)CC(N)CC(C)(C)N1O
inactive: dose: 100.0 mg/kg/injection, schedule: Q04DX003 (ip), vehicle: saline 100 % of control | dose: 200.0 mg/kg/injection, schedule: Q04DX003 (ip), vehicle: saline 97 % of control

O=C(Nc1ccccc1F)c1ccc(Cl)c(Cl)c1
inactive: [9] 98 % of control | [7] 92 % of control | [10] 96 % of control | [8] 86 % of control | [11] 93 % of control

Nc1cc[c]([Hg][Cl])cc1
inactive: dose: 1.0 mg/kg/injection, schedule: Q01DX009 (ip), vehicle: Klucel (hydroxypropylcellulose) (HPC) 97 % of control | dose: 1.0 mg/kg/injection, schedule: Q04DX003 (ip), vehicle: saline 102 % of control | [12] 112 % of control | dose: 3.0 mg/kg/injection, schedule: Q04DX003 (ip), vehicle: saline 96 % of control | [13] 88 % of control | dose: 6.0 mg/kg/injection, schedule: Q04DX003 (ip), vehicle: saline 95 % of control

COc1cc(C)cc(C(=O)O)c1
inactive: dose: 100.0 mg/kg/injection, schedule: Q04DX002 (ip), vehicle: saline with Tween-80 97 % of control | dose: 200.0 mg/kg/injection, schedule: Q04DX002 (ip), vehicle: saline with Tween-80 101 % of control | dose: 400.0 mg/kg/injection, schedule: Q04DX002 (ip), vehicle: saline with Tween-80 101 % of control

CCCNC(=O)C1C2C=CC(CC2)C1C(=O)NCCC (stereo not drawn)
inactive: [16] 92 % of control | [17] 100 % of control | [18] 96 % of control

O=[N+]([O-])c1ccc(N/N=C(\Oc2ccccc2)c2ccc([N+](=O)[O-])cc2)cc1
inactive: [16] 94 % of control | [17] 90 % of control

C#CCNc1ccc(C(=O)OCC)cc1
inactive: dose: 100.0 mg/kg/injection, schedule: Q04DX002 (ip), vehicle: gum acacia 99 % of control | dose: 200.0 mg/kg/injection, schedule: Q04DX002 (ip), vehicle: gum acacia 108 % of control | dose: 400.0 mg/kg/injection, schedule: Q04DX002 (ip), vehicle: gum acacia 92 % of control

CCOC(=O)c1ccc(N2C(=O)c3cccc4cccc(c34)C2=O)c([N+](=O)[O-])c1
inactive: [16] 97 % of control | [17] 93 % of control | [18] 95 % of control

CCCCCC(C)O[Si](C)Oc1ccccc1 (stereo not drawn)
inactive: [16] 100 % of control | [17] 100 % of control | [18] 91 % of control

CON(C)S(=O)(=O)c1ccc([N+](=O)[O-])cc1
inactive: [14] 102 % of control | [15] 98 % of control

CCCCNCCO
inactive: dose: 25.0 mg/kg/injection, schedule: Q01DX009 (ip), vehicle: saline 96 % of control | dose: 50.0 mg/kg/injection, schedule: Q01DX009 (ip), vehicle: saline 100 % of control | dose: 100.0 mg/kg/injection, schedule: Q01DX009 (ip), vehicle: saline 115 % of control

COc1c2c(cc3c(C)cc(=O)n(C)c13)c(C)cc(=O)n2C
inactive: [9] 99 % of control | [10] 92 % of control | [11] 101 % of control
